{"source": "patent US12502362B2", "about": "“Inhibitors of nucleotidyltransferase superfamily enzymes as antibiotics” (priority 2017, dated 2025)", "key": {"[1]": {"system": "S. aureus ATCC strains and MRSA", "type": "cell-based, Staphylococcus aureus"}, "[2]": {"system": "Staphylococcus epidermidis", "type": "cell-based", "protocol": "(§1) It was also tested whether compounds #63 and #285 can inhibit other coagulase-negative Staphylococcus (CNS) including S. epidermidis, S. hominis, etc. […]."}, "Staphylococcus hominis": {"system": "Staphylococcus hominis", "type": "cell-based", "protocol": "as §1"}, "S. aureus (ATCC 29213)": {"system": "S. aureus (ATCC 29213)", "test": "MIC80 on S. aureus", "type": "cell-based, Staphylococcus aureus", "settings": "≥80% growth inhibition"}, "[3]": {"system": "Staphylococcus saprophyticus (ATCC BAA-750)", "test": "MIC80 on S. saprophyticus", "type": "cell-based", "settings": "S. saprophyticus ATCC BAA-750, read-out: MIC80 S. sapro"}, "[4]": {"system": "Ps. aeruginosa (ATCC 27853)", "test": "MIC80 on Ps. aeruginosa", "type": "cell-based", "settings": "Pseudomonas aeruginosa, ATCC27853"}, "E. coli (ATCC 35218)": {"system": "E. coli (ATCC 35218)", "test": "microbe, parasite or virus in culture", "type": "cell-based"}}, "note": "Like-named read-outs stand apart in the source and are kept apart here.", "data": [{"smiles": "O=C(O)c1cn(C2CC2)c2cc(N3CCNCC3)c(F)cc2c1=O", "note": "[Compound 67, Ciprofloxacin]", "values": [{"measurement": "Antibiotic susceptibility", "setting": "[1]; S. aureus ATCC 25923", "value": "S"}, {"measurement": "Antibiotic susceptibility", "setting": "[1]; S. aureus ATCC 29213", "value": "S"}, {"measurement": "Antibiotic susceptibility", "setting": "[1]; S. aureus ATCC BAA 976", "value": "S"}, {"measurement": "Antibiotic susceptibility", "setting": "[1]; S. aureus ATCC BAA 977", "value": "S"}, {"measurement": "Antibiotic susceptibility", "setting": "[1]; S. aureus ATCC BAA 1026", "value": "R"}, {"measurement": "Antibiotic susceptibility", "setting": "[1]; Sa1 (MRSA)", "value": "R"}, {"measurement": "Antibiotic susceptibility", "setting": "[1]; Sa2 (MRSA)", "value": "R"}, {"measurement": "Antibiotic susceptibility", "setting": "[1]; Sa3 (MRSA)", "value": "R"}, {"measurement": "Antibiotic susceptibility", "setting": "[1]; Sa5 (MRSA)", "value": "R"}, {"measurement": "Antibiotic susceptibility", "setting": "[1]; Sa6 (MRSA)", "value": "R"}, {"measurement": "Antibiotic susceptibility", "setting": "[1]; Sa7 (MRSA)", "value": "S"}, {"measurement": "Antibiotic susceptibility", "setting": "[1]; Sa8 (MRSA)", "value": "R"}, {"measurement": "Antibiotic susceptibility", "setting": "[1]; Sa9 (MRSA)", "value": "R"}, {"measurement": "Antibiotic susceptibility", "setting": "[1]; Sa10 (MRSA)", "value": "R"}, {"measurement": "Antibiotic susceptibility", "setting": "[1]; Sa11 (MRSA)", "value": "R"}, {"measurement": "Antibiotic susceptibility", "setting": "[1]; Sa12 (MRSA)", "value": "R"}, {"measurement": "Antibiotic susceptibility", "setting": "[1]; Sa14 (MRSA)", "value": "R"}, {"measurement": "Antibiotic susceptibility", "setting": "[1]; Sa15 (MRSA)", "value": "R"}, {"measurement": "Antibiotic susceptibility", "setting": "[1]; Sa16 (MRSA)", "value": "R"}, {"measurement": "Antibiotic susceptibility", "setting": "[1]; Sa17 (MRSA)", "value": "R"}, {"measurement": "Antibiotic susceptibility", "setting": "[1]; Sa18 (MRSA)", "value": "R"}, {"measurement": "Antibiotic susceptibility", "setting": "[1]; Sa19 (MRSA)", "value": "S"}, {"measurement": "Antibiotic susceptibility", "setting": "[1]; Sa20 (MRSA)", "value": "R"}, {"measurement": "Antibiotic susceptibility", "setting": "[1]; Sa21 (MRSA)", "value": "S"}, {"measurement": "Antibiotic susceptibility", "setting": "[1]; Sa22 (MRSA)", "value": "S"}, {"measurement": "Antibiotic susceptibility", "setting": "[1]; Sa23 (MRSA)", "value": "S"}, {"measurement": "Antibiotic susceptibility", "setting": "[2]", "value": "R and S"}, {"measurement": "Antibiotic susceptibility", "setting": "Staphylococcus hominis", "value": "R and S"}, {"measurement": "MIC80 S. aureus", "setting": "S. aureus (ATCC 29213); S. aureus ATCC 29213 (MSSA)", "value": "<2.6", "unit": "µM"}, {"measurement": "MIC80", "setting": "S. aureus (ATCC 29213); Staphylococcus aureus, ATCC 29213 / MSSA, read-out: MIC80 S. aureus, S. aureus ATCC 29213 (MSSA)", "value": "< 2.9", "unit": "µM"}, {"measurement": "MIC80", "setting": "[3]", "value": "<2.9", "unit": "µM"}, {"measurement": "MIC80", "setting": "[3]; Staphylococcus saprophyticus, ATCCBAA750", "value": "< 2.9", "unit": "µM"}, {"measurement": "MIC80", "setting": "[4]", "value": "< 2.9", "unit": "µM"}, {"measurement": "MIC80 E. coli", "setting": "E. coli (ATCC 35218); E. coli ATCC 35218", "value": "<2.9", "unit": "µM"}, {"measurement": "MIC80", "setting": "E. coli (ATCC 35218); Escherichia coli, ATCC35218, read-out: MIC80 E. coli, E. coli ATCC 35218", "value": "< 2.9", "unit": "µM"}]}]}
